pIC50: −log10 of the molar value. Each block holds one compound with its values, some of them ahead of it.
Tested on: 898857-211-R-J1-PDC complex spheroids, growth % test/control
Assay: Anticancer human tumor 898857-211-R-J1-PDC patient-derived melanoma cell line growth inhibition [RAS]
Conditions: for pIC50: curve of first compound; for viability, T/C: stronger effect = lower value
In short: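 Tumour cells grown as complex spheroids with HUVEC endothelial cells and mesenchymal stem cells, treated with RAS pathway inhibitor combinations. Each agent spans half-log steps from near clinical Cmax, or 10 microM where Cmax is unknown.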
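Note: spheroids exposed to compound for seven days before readout.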
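Throughout, for viability, T/C: 100% = DMSO vehicle control wells.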

- pIC50 (second compound 0.000949 µM): 8.17
- pIC50 (second compound 0.003 µM): 8.14
- pIC50 (second compound 0.00949 µM): 8.17
- pIC50 (second compound 0.03 µM): 8.22
- pIC50 (second compound 0.0949 µM): 8.24
- pIC50 (second compound 0.3 µM): 8.44
SMILES: Nc1ccn(C2OC(CO)C(O)C2(F)F)c(=O)n1 (stereo unspecified) + CCn1c(-c2cccnc2C(C)OC)c2c3cc(ccc31)N1CCOC(CC(NC(=O)C(C(C)C)N(C)C(=O)C3(F)CCN(C(=O)C#CC(C)(C)N(C)C)CC3)C(=O)N3CCCC(N3)C(=O)OCC(C)(C)C2)C1
- viability, T/C (second compound 0.000949 µM, first compound 0.00316 µM): 92.8%
- viability, T/C (second compound 0.000949 µM, first compound 0.01 µM): 27.9%
- viability, T/C (second compound 0.000949 µM, first compound 0.0316 µM): 5.77%
- viability, T/C (second compound 0.000949 µM, first compound 0.1 µM): 4.12%
- viability, T/C (second compound 0.000949 µM, first compound 0.316 µM): 5.73%
- viability, T/C (second compound 0.000949 µM, first compound 1 µM): 5.16%
- viability, T/C (second compound 0.003 µM, first compound 0.00316 µM): 100%
- viability, T/C (second compound 0.003 µM, first compound 0.01 µM): 29.9%
- viability, T/C (second compound 0.003 µM, first compound 0.0316 µM): 6.22%
- viability, T/C (second compound 0.003 µM, first compound 0.1 µM): 5.43%
- viability, T/C (second compound 0.003 µM, first compound 0.316 µM): 4.28%
- viability, T/C (second compound 0.003 µM, first compound 1 µM): 4.09%
- viability, T/C (second compound 0.00949 µM, first compound 0.00316 µM): 95.7%
- viability, T/C (second compound 0.00949 µM, first compound 0.01 µM): 25.6%
- viability, T/C (second compound 0.00949 µM, first compound 0.0316 µM): 5.43%
- viability, T/C (second compound 0.00949 µM, first compound 0.1 µM): 3.4%
- viability, T/C (second compound 0.00949 µM, first compound 0.316 µM): 4.91%
- viability, T/C (second compound 0.00949 µM, first compound 1 µM): 4.53%
- viability, T/C (second compound 0.03 µM, first compound 0.00316 µM): 86.8%
- viability, T/C (second compound 0.03 µM, first compound 0.01 µM): 21%
- viability, T/C (second compound 0.03 µM, first compound 0.0316 µM): 4.86%
- viability, T/C (second compound 0.03 µM, first compound 0.1 µM): 4.53%
- viability, T/C (second compound 0.03 µM, first compound 0.316 µM): 4.23%
- viability, T/C (second compound 0.03 µM, first compound 1 µM): 3.48%
- viability, T/C (second compound 0.0949 µM, first compound 0.00316 µM): 86%
- viability, T/C (second compound 0.0949 µM, first compound 0.01 µM): 15.7%
- viability, T/C (second compound 0.0949 µM, first compound 0.0316 µM): 4.15%
- viability, T/C (second compound 0.0949 µM, first compound 0.1 µM): 3.36%
- viability, T/C (second compound 0.0949 µM, first compound 0.316 µM): 3.77%
- viability, T/C (second compound 0.0949 µM, first compound 1 µM): 4.54%
- viability, T/C (second compound 0.3 µM, first compound 0.00316 µM): 54.6%
- viability, T/C (second compound 0.3 µM, first compound 0.01 µM): 12.4%
- viability, T/C (second compound 0.3 µM, first compound 0.0316 µM): 3.88%
- viability, T/C (second compound 0.3 µM, first compound 0.1 µM): 3.1%
- viability, T/C (second compound 0.3 µM, first compound 0.316 µM): 3.62%
- viability, T/C (second compound 0.3 µM, first compound 1 µM): 2.98%

- pIC50 (second compound 0.00316 µM): 8.33
- pIC50 (second compound 0.01 µM): 8.31
- pIC50 (second compound 0.0316 µM): 8.29
- pIC50 (second compound 0.1 µM): 8.31
- pIC50 (second compound 0.316 µM): 8.27
- pIC50 (second compound 1 µM): 8.25
SMILES: CCc1c2c(nc3ccc(O)cc13)-c1cc3c(c(=O)n1C2)COC(=O)[C@]3(O)CC + C=CC(=O)N1CCN(c2nc(OCC3CCCN3C)nc3c(F)c(-c4nc(N)cc(C)c4C(F)(F)F)c(Cl)cc23)C(C)C1
- viability, T/C (second compound 0.00316 µM, first compound 0.000949 µM): 95.2%
- viability, T/C (second compound 0.00316 µM, first compound 0.003 µM): 64.1%
- viability, T/C (second compound 0.00316 µM, first compound 0.00949 µM): 27.9%
- viability, T/C (second compound 0.00316 µM, first compound 0.03 µM): 8.98%
- viability, T/C (second compound 0.00316 µM, first compound 0.0949 µM): 7.24%
- viability, T/C (second compound 0.00316 µM, first compound 0.3 µM): 8.79%
- viability, T/C (second compound 0.01 µM, first compound 0.000949 µM): 89.6%
- viability, T/C (second compound 0.01 µM, first compound 0.003 µM): 67.4%
- viability, T/C (second compound 0.01 µM, first compound 0.00949 µM): 27.5%
- viability, T/C (second compound 0.01 µM, first compound 0.03 µM): 10.1%
- viability, T/C (second compound 0.01 µM, first compound 0.0949 µM): 7.97%
- viability, T/C (second compound 0.01 µM, first compound 0.3 µM): 8.39%
- viability, T/C (second compound 0.0316 µM, first compound 0.000949 µM): 87.3%
- viability, T/C (second compound 0.0316 µM, first compound 0.003 µM): 69.2%
- viability, T/C (second compound 0.0316 µM, first compound 0.00949 µM): 27.4%
- viability, T/C (second compound 0.0316 µM, first compound 0.03 µM): 8.88%
- viability, T/C (second compound 0.0316 µM, first compound 0.0949 µM): 8.21%
- viability, T/C (second compound 0.0316 µM, first compound 0.3 µM): 8.99%
- viability, T/C (second compound 0.1 µM, first compound 0.000949 µM): 93%
- viability, T/C (second compound 0.1 µM, first compound 0.003 µM): 68.7%
- viability, T/C (second compound 0.1 µM, first compound 0.00949 µM): 26%
- viability, T/C (second compound 0.1 µM, first compound 0.03 µM): 8.12%
- viability, T/C (second compound 0.1 µM, first compound 0.0949 µM): 7.6%
- viability, T/C (second compound 0.1 µM, first compound 0.3 µM): 8.98%
- viability, T/C (second compound 0.316 µM, first compound 0.000949 µM): 98.4%
- viability, T/C (second compound 0.316 µM, first compound 0.003 µM): 73.3%
- viability, T/C (second compound 0.316 µM, first compound 0.00949 µM): 28.4%
- viability, T/C (second compound 0.316 µM, first compound 0.03 µM): 9.68%
- viability, T/C (second compound 0.316 µM, first compound 0.0949 µM): 9.81%
- viability, T/C (second compound 0.316 µM, first compound 0.3 µM): 8.65%
- viability, T/C (second compound 1 µM, first compound 0.000949 µM): 98%
- viability, T/C (second compound 1 µM, first compound 0.003 µM): 75.5%
- viability, T/C (second compound 1 µM, first compound 0.00949 µM): 27.8%
- viability, T/C (second compound 1 µM, first compound 0.03 µM): 11.4%
- viability, T/C (second compound 1 µM, first compound 0.0949 µM): 8.78%
- viability, T/C (second compound 1 µM, first compound 0.3 µM): 8.26%

- pIC50 (second compound 0.0316 µM): 8.45
- pIC50 (second compound 0.1 µM): > 8.50
- pIC50 (second compound 0.316 µM): > 8.50
- pIC50 (second compound 1 µM): 8.43
- pIC50 (second compound 3.16 µM): 8.29
- pIC50 (second compound 10 µM): > 8.50
SMILES: O=C(c1ccc(F)c(F)c1Nc1ccc(I)cc1F)N1CC(O)([C@@H]2CCCCN2)C1 + C#Cc1c(F)ccc2cc(O)cc(-c3ncc4c(N5CC6CCC(C5)N6)nc(OCC56CCCN5CC(F)C6)nc4c3F)c12
- viability, T/C (second compound 0.0316 µM, first compound 0.00316 µM): 52.6%
- viability, T/C (second compound 0.0316 µM, first compound 0.01 µM): 35.3%
- viability, T/C (second compound 0.0316 µM, first compound 0.0316 µM): 26.1%
- viability, T/C (second compound 0.0316 µM, first compound 0.1 µM): 26.5%
- viability, T/C (second compound 0.0316 µM, first compound 0.316 µM): 17.6%
- viability, T/C (second compound 0.0316 µM, first compound 1 µM): 14.2%
- viability, T/C (second compound 0.1 µM, first compound 0.00316 µM): 44%
- viability, T/C (second compound 0.1 µM, first compound 0.01 µM): 36.1%
- viability, T/C (second compound 0.1 µM, first compound 0.0316 µM): 27.1%
- viability, T/C (second compound 0.1 µM, first compound 0.1 µM): 20.7%
- viability, T/C (second compound 0.1 µM, first compound 0.316 µM): 18.8%
- viability, T/C (second compound 0.1 µM, first compound 1 µM): 15.3%
- viability, T/C (second compound 0.316 µM, first compound 0.00316 µM): 50%
- viability, T/C (second compound 0.316 µM, first compound 0.01 µM): 37.8%
- viability, T/C (second compound 0.316 µM, first compound 0.0316 µM): 29.6%
- viability, T/C (second compound 0.316 µM, first compound 0.1 µM): 24.8%
- viability, T/C (second compound 0.316 µM, first compound 0.316 µM): 16.7%
- viability, T/C (second compound 0.316 µM, first compound 1 µM): 14.5%
- viability, T/C (second compound 1 µM, first compound 0.00316 µM): 53.5%
- viability, T/C (second compound 1 µM, first compound 0.01 µM): 30%
- viability, T/C (second compound 1 µM, first compound 0.0316 µM): 24.5%
- viability, T/C (second compound 1 µM, first compound 0.1 µM): 20.6%
- viability, T/C (second compound 1 µM, first compound 0.316 µM): 17.6%
- viability, T/C (second compound 1 µM, first compound 1 µM): 15.3%
- viability, T/C (second compound 3.16 µM, first compound 0.00316 µM): 59.7%
- viability, T/C (second compound 3.16 µM, first compound 0.01 µM): 36.2%
- viability, T/C (second compound 3.16 µM, first compound 0.0316 µM): 26.7%
- viability, T/C (second compound 3.16 µM, first compound 0.1 µM): 21.4%
- viability, T/C (second compound 3.16 µM, first compound 0.316 µM): 19.3%
- viability, T/C (second compound 3.16 µM, first compound 1 µM): 12.5%
- viability, T/C (second compound 10 µM, first compound 0.00316 µM): 17.5%
- viability, T/C (second compound 10 µM, first compound 0.01 µM): 14.3%
- viability, T/C (second compound 10 µM, first compound 0.0316 µM): 12.5%
- viability, T/C (second compound 10 µM, first compound 0.1 µM): 9.58%
- viability, T/C (second compound 10 µM, first compound 0.316 µM): 9.91%
- viability, T/C (second compound 10 µM, first compound 1 µM): 5.99%

Reference: PubChem BioAssay AID2060882 (Molecular Pharmacology Branch, DTP, NCI, 2025)
